Laboratory results reported in article PMC12224672, “Advancing the development of TRIP13 inhibitors: A high-throughput screening approach” (SLAS discovery : advancing life sciences R & D, 2025).

Target: T1, TRIP13 (Homo sapiens, UniProt Q15645)
T1 construct: full length, 1-432 aa, N-GST-tagged
T1 sequence (Q15645 1-432): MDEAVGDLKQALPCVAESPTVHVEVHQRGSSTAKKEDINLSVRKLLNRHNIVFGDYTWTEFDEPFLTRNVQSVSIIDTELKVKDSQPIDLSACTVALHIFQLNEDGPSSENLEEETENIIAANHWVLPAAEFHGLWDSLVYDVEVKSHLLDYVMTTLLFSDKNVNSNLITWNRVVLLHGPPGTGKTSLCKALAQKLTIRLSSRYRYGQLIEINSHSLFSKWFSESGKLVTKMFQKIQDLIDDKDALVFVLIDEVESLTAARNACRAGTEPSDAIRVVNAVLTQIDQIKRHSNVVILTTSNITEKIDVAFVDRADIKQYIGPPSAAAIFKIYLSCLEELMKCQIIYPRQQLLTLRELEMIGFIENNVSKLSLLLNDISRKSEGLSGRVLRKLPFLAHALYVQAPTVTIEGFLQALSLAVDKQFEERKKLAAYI
Experiment: ADP-Glo ATPase dose-response ([…] TRIP13, […] ATP) with ADP counter-screen; also CETSA in HeLa cells
Type: biochemical

IC50: 5.5 ± 1 µM
Compound: COc1cc2c(Oc3ccc4[nH]c(C)cc4c3F)ccnc2cc1OCC1(N)CC1 [anlotinib]
